Experimental data taken from patent publication US20200129582A1, “NOVEL PEPTIDES AND PEPTIDOMIMETICS” (UNIVERSITY OF AUCKLAND, priority 2016, published 2020).
Like-named read-outs stand apart in the source and are kept apart here.

Legend:
[1] = target: T1, coupled gap junction channels in hCMVEC cells (Homo sapiens, UniProt P17302); type: cell-based
T1 construct: A confluent monolayer of hCMVECs was pre-incubated in Peptide5; endogenous in cells; host or cells: hCMVEC
Experimental: (§1) The hCMVEC cells were plated in 1 μg/cm^2 collagen I (Gibco) 12-well plate at a density of 0.4×10^6 cells per well, and cultured overnight. A confluent monolayer of hCMVECs was pre-incubated in Peptide5 (5-100 μM) dissolved in culture medium for 2 hours or 24 hours. CBX at a concentration of 100 μM was used as a positive control. Cells were washed three times with phosphate buffered saline (PBS) without Ca^2+ or Mg^2+. The cells were then incubated in 0.05% Lucifer Yellow (LY) (Sigma), a fluorescent dye that is transferred through coupled gap junction channels (el-Fouly et al., 1987, Experimental cell research 168:422-430), +/−Peptide5 dissolved in PBS, and scrape-wounded with a size 10 carbon steel surgical blade (Swann-Morton, England). Following 5-minute incubation at 37° C. in 95% O2 and 5% CO2 without light, the 0.05% LY solution was removed. Cells were rinsed four times with PBS with Ca^2+ or Mg^2+, and then fixed in 4% paraformaldehyde (PFA) in PBS at pH 7.4 for 10 minutes at room temperature. Cells were then washed 3 times in PBS to remove PFA before fluorescent imaging. Fluorescent images were visualised using a Nikon TE2000E inverted fluorescent microscope (10× magnification, 0.3 numerical aperture), and captured using a Digital Sight CCD camera and Eclipse Net software (Nikon). Three images within each well from three independent experiments were taken for analysis and the total number of cells showing dye uptake from those that had been loaded were counted manually by masked observers.
as §1, with “1987),” for “1987, Experimental cell research 168:422-430),”

[2] = target: T2, Connexin43 plaques in ARPE-19 cells (Homo sapiens, UniProt P17302); test: Immunocytochemistry and quantification of Cx43 plaques; type: cell-based; settings: for total Connexin43 expression reduced by, relative to the control: 500 μM; for Connexin43 labelling per cell compared to untreated control (in words): 2- or 6-hour treatment, Peptide5 50-500 μM, LaCl3 and CBX 500 μM; for distribution of Connexin43 plaques: Peptide5 500 μM, FIG. 1A
T2 construct: a cell line with high endogenous expression of connexin43; endogenous in cells; host or cells: ARPE-19
T2 sequence (P17302 2-382 limits assumed): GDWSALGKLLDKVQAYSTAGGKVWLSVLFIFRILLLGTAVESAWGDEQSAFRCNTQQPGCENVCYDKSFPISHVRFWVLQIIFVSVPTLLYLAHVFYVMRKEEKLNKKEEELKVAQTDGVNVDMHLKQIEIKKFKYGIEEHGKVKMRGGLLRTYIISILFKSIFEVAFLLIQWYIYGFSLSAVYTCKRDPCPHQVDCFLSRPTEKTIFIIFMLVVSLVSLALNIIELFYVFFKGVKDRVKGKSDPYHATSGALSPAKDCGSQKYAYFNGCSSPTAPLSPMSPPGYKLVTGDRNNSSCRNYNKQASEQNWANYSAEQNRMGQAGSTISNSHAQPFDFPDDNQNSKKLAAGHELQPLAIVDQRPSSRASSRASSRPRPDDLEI
Experimental: (§2) ARPE-19 cells were grown until confluent in 8-well glass chamber-slides (BD Falcon). Confluent monolayers of ARPE-19 cells were incubated at a final concentration of 50 to 500 μM Peptide5, 500 μM LaCl3 and 500 μM CBX in culture medium for 2 or 6 hours. Cells were fixed in 4% PFA (ProSciTech) at pH 7.4 for 10 min at room temperature, permeabilized with 0.05% Triton-X100 in PBS, and incubated in 10% normal goat serum to block non-specific labelling. Cells were rinsed three times with PBS containing 0.1 mM CaCl2 between each fixation, permeabilization, and blocking steps. Connexin43 polyclonal rabbit antibody (C6219, Sigma, 1:2000) was applied overnight, followed by a goat anti-rabbit Alexa Fluor® 568 secondary antibody (Invitrogen, 1:200) for 45 minutes. Nuclei were counterstained with DAPI (Invitrogen) at 10,000-fold dilution for 5 mins, and mounted with Citifluor™ mounting medium. Images were visualised and captured using an oil immersion lens (60× magnification, 1.35 numerical aperture) on an Olympus FV1000 upright confocal laser scanning microscope and Olympus FV10-ASW 4.0 software. The Transfluor feature in MetaXpress® Image acquisition and analysis software (Version 5.3.0.1, Molecular Devices) was used to quantify the total area of Connexin43 plaques per image.
as §2

T1 sequence (P17302 2-382 limits assumed): as above

| Compound | LY positive cells compared to the control ([1]; hCMVEC, 100 μM, 2-hour exposure, FIG. 2A) [%] | LY dye transfer, % of the untreated control ([1]; hCMVEC, 100 μM, 2-hour exposure, FIG. 5, untreated control 100±4.5%) [%] | LY dye transfer compared to native Peptide5 (in words) ([1]; hCMVEC, 100 μM, FIG. 2) | LY dye transfer compared to untreated control (in words) ([1]; hCMVEC, 100 μM, FIG. 2) | total Connexin43 expression reduced by, relative to the control ([2]; 2-hour exposure) [%] | total Connexin43 expression reduced by, relative to the control ([2]; after 6 hours) [%] | Connexin43 labelling per cell compared to untreated control (in words) [2] | LY dye transfer compared to untreated control (in words) [1] | LY dye transfer, % of the untreated control [1] [%] | LY positive cells compared to the control [1] [%] | distribution of Connexin43 plaques ([2]; 2-hour exposure) | distribution of Connexin43 plaques ([2]; 6-hour exposure) |
| --- | --- | --- | --- | --- | --- | --- | --- | --- | --- | --- | --- | --- |
| CC1(C)[C@@H](OC(=O)CCC(=O)O)CC[C@]2(C)[C@H]3C(=O)C=C4[C@@H]5C[C@@](C)(C(=O)O)CC[C@]5(C)CC[C@@]4(C)[C@]3(C)CC[C@@H]12 [CBX, Carbenoxolone] | 16.3±1.1 | 15.3±1.8 | significantly more than the native Peptide5 | significantly reduced | 30.0±8.2 | 53.4±8.1 | significant reduction |  |  |  |  |  |
| VDCFLSRPTEKT [Peptide5] |  |  |  |  |  |  | no significant difference | significantly attenuated LY dye transfer | 79.4±3.9 | 56.2±2.6 | patterns of cytoplasmic streaming | fragmented |
